Experimental findings from US6043279A, “Compounds having selective activity for retinoid X receptors, and means for modulation of processes mediated by retinoid X receptors” (priority 1997, dated 2000) are described below.

For one data set, the system named is Rhino mice. In words: comedolytic test on Rhino mice. The format is in vivo.
The test system of the next data set is RXR. Description: apoA1 "A" site reporter co-transfection in HepG-2 cells with RXR. Type of data set: cell-based. An excerpt: (§1) This work focused on studying the transcriptional properties of the retinoid receptors RAR and RXR on a reporter molecule (e.g., luciferase) under control of a basal promoter containing the RXR response element from the apoA1 gene ("A" site). Plasmid constructs coding for the various receptors were transfected into a human hepatocyte cell line (HepG-2) along with the reporter plasmid. […] Widom et al., Mol. Cell. […] After transfection, treatment, harvest, and assay, the data obtained was normalized to transfected beta-galactosidase activity so as to control for transfection efficiency.

The test system of a further data set is RAR. Description: apoA1 "A" site reporter co-transfection in HepG-2 cells with RAR. The format is cell-based.
Text: as §1

The conditions of data set [1]: rats. The protocol: Male Sprague-Dawley rats (160-200 gram) were obtained from Harlan. Animals were fed standard laboratory diets (Harlan/Teklad) and kept in an environmentally controlled animal house with a light period lasting from 6 a.m. to 6 p.m. Animals were treated with drugs prepared as suspensions in olive oil.
Plasma was separated and stored at 4° C. for evaluation of plasma total cholesterol and high density lipoprotein cholesterol (HDL-cholesterol).
Plasma total cholesterol was measured enzymatically utilizing Boeringer Mannheim Diagnostics High Performance Cholesterol Methods with an ABBOTT VP Bichromatic Analyzer. HDL cholesterol was measured after preparation of the HDL-containing fraction by heparin-manganese precipitation of plasma. HDL-cholesterol in this fraction was estimated as mentioned earlier. All HDL separations were checked for contamination by other lipoproteins with agarose gel electrophoresis.
Serum samples were taken and analyzed by Western Blot using antisera specific to rat apoA1.

The test system of data set [2] is ME180, a squamous cell carcinoma. In words: growth of ME180 tumor cells (cell number). Type of data set: cell-based, human. The text has this:
(§2) The effects on growth of these cells were monitored by evaluation of cell number, and also by evaluation of growth in semi-solid medium for the RPMI18226 cell line. […] The therapeutic index is defined as the ratio of efficacy to toxicity of a compound.

Data set [3] concerns RPMI18226, a multiple myeloma. In words: growth of RPMI18226 tumor cells (cell number, semi-solid medium). Conditions: cell number and growth in semi-solid medium. Type of data set: cell-based, human.
Text: as §2

The target in the next data set is T1, RXRβ (Mus musculus, UniProt P28704).
T1 construct: expressed in transfected cells; host or cells: CV-1 (monkey kidney)
T1 sequence (P28704 1-520): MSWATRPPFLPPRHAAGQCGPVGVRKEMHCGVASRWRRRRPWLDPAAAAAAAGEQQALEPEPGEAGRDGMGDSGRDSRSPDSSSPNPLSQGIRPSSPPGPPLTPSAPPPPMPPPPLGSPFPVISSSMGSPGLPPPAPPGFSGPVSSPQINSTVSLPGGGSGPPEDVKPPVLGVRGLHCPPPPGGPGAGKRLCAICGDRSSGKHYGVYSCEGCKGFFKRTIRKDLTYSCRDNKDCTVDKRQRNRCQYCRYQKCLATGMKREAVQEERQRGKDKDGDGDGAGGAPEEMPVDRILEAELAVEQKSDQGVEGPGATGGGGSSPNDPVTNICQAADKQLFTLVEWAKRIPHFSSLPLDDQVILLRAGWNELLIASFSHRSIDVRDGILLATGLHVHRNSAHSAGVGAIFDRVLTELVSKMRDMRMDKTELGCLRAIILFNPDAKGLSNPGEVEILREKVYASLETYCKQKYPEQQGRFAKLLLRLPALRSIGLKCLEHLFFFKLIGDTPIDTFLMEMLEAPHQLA
In words: co-transfection (cis-trans) assay in CV-1 cells, RXRβ. Type of data set: cell-based. The note with it: CV-1, read-out: Efficacy RXRβ. An excerpt:
The co-transfection assay provides a mechanism to evaluate the ability of a compound to modulate the transcription response initiated by an intracellular receptor. […] Berger et al., J. Steroid Biochem. Molec.
Briefly, the co-transfection assay involves the introduction of two plasmids by transient transfection into a retinoid receptor-negative mammalian cell background. The first plasmid contains a retinoid receptor cDNA and directs constitutive expression of the encoded receptor. The second plasmid contains a cDNA that encodes for a readily quantifiable protein, e.g., firefly luciferase or chloramphenicol acetyl transferase (CAT), under control of a promoter containing a retinoid acid response element, which confers retinoid dependence on the transcription of the reporter. In this co-transfection assay, all retinoid receptors respond to all-trans-retinoic acid in a similar fashion. This assay can be used to accurately measure efficacy and potency of retinoic acid and synthetic retinoids as ligands that interact with the individual retinoid receptor subtypes.
Accordingly, synthetic retinoid compounds of the current invention were evaluated for their interaction with retinoid receptor subtypes using the co-transfection assay in which CV-1 cells were co-transfected with one of the retinoid receptor subtypes, a reporter construct, and an internal control to allow normalization of the response for transfection efficiency. The following example is illustrative.
Retinoids: All-trans-retinoic acid (RA) and 13-cis-retinoic acid (13-cis-RA) were obtained from Sigma. […] Retinoids were dissolved in dimethylsulfoxide for use in the transcriptional activation assays.
Co-transfection Assay In CV-1 Cells: A monkey kidney cell line, CV-1, was used in the cis-trans assay. Cells were transfected with two plasmids. […] The cis-vector contains an easily assayable gene product, in this case the firefly luciferase, coupled to a retinoid-responsive promoter, i.e., an RARE or RXRE. Addition of retinoic acid or an appropriate synthetic retinoid results in the formation of a retinoid-RAR or -RXR complex that activates the expression of luciferase gene, causing light to be emitted from cell extracts. The level of luciferase activity is directly proportional to the effectiveness of the retinoid-receptor complex in activating gene expression. This sensitive and reproducible co-transfection approach permits the identification of retinoids that interact with the different receptor isoforms.
Cells were cultured in DMEM supplemented with 10% charcoal resin-stripped fetal bovine serum, and experiments were conducted in 96-well plates. […] Cells were transfected for 6 h and then washed to remove the precipitate. The cells were then incubated for 36 h with or without retinoid. After the transfection, all subsequent steps were performed on a Beckman Biomek Automated Workstation. […] All determinations were performed in triplicate in two independent experiments and were normalized for transfection efficiency by using β-galactosidase as the internal control. […] Efficacy values less than 5% are not statistically different than the 0% background.

Data set [4] has as its system myeloma cell line (RPMI 8226). In words: thymidine incorporation assay in myeloma cell line RPMI 8226. The note with it: RPMI 8226 myeloma cells, FIG. 11. Type of data set: cell-based. An excerpt:
This assay examines the incorporation of radiolabeled thymidine into DNA, and by determining the ability of a compound to inhibit thymidine incorporation into DNA, provides a measure of cell proliferation.

The next data set has as its system HL60. Description: thymidine incorporation assay in HL60 cells. The format is cell-based. (In general: Uptake of a labelled nucleoside into DNA is a usual measure of proliferation.)
For another data set, the target named is T2, RXRα/PPAR (UniProt P19793+P23204).
T2 construct: expressed in transfected cells; host or cells: HepG2
T2 sequence (P23204 whole entry): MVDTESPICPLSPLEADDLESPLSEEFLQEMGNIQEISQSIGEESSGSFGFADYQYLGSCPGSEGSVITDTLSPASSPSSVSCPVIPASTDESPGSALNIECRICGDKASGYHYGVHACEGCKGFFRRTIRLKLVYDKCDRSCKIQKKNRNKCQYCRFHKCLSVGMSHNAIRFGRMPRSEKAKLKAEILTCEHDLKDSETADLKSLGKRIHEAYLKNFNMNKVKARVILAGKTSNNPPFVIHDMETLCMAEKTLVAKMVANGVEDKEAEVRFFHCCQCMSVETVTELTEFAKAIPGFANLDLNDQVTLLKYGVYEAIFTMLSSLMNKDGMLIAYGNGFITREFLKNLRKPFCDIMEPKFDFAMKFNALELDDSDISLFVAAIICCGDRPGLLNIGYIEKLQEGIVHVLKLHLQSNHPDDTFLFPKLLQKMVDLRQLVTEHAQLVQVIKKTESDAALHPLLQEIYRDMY
T2 sequence (P19793 whole entry): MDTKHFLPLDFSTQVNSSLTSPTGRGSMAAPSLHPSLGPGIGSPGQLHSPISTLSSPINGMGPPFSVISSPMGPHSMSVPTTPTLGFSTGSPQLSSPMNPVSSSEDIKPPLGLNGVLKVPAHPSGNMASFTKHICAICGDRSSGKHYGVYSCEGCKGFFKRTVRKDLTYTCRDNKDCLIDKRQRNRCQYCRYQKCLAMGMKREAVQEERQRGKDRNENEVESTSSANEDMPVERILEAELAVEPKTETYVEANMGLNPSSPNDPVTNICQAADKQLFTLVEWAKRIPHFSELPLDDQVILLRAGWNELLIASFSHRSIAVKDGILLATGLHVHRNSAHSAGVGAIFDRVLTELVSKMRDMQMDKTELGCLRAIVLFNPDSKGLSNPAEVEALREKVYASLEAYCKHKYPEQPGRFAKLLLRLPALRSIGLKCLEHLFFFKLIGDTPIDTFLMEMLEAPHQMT
In words: co-transfection of RXRα and PPAR into HepG2 cells, target reporter gene. The format is cell-based. The note with it: HepG2, read-out: Normalized Response (%). The text has this:
Specifically, peroxisome proliferator-activated receptor (PPAR) is a member of the intracellular receptor super family that plays a role in the modulation of lipid homeostasis. […] These agents, called peroxisome proliferators, have been used in man as hypolipidemic agents.
In general terms: A reporter such as luciferase makes a cellular process visible.

As for `Cc1cc2c(cc1C(=O)c1ccc(C(=O)O)cc1)C(C)(C)CCC2(C)C` [3-methyl-TTNCB, 4-[(3,5,5,8,8-pentamethyl-5,6,7,8-tetrahydro-2-naphthyl)carbonyl]benzoic acid], the “inhibition of utriculi diameter” value in the data set on Rhino mice (0.1% solution, topical, Rhino mice, FIG. 9) was “approximately 50%”. For the same compound, the “irritation to the skin of Rhino mice” value in the data set on Rhino mice (compared with 9-cis- or all-trans-retinoic acid) was “less irritating to the skin of Rhino mice than 9-cis- or all-trans-retinoic acid”. The “activation of apoA1 "A" site reporter with RXR” value in the data set with RXR is recorded as “activation in the system”. For the same compound, in the data set with RAR, the “effect on apoA1 "A" site reporter with RAR” value is given as “no effect”.
In the case of `C=C(c1ccc(C(=O)O)cc1)c1cc2c(cc1C)C(C)(C)CCC2(C)C` [3-methyl-TTNEB, 4-[1-(3,5,5,8,8-pentamethyl-5,6,7,8-tetrahydro-2-naphthyl)ethenyl]benzoic acid], the total cholesterol entry in [1] (4 days) is “an increase due to the increase of the HDL-cholesterol fraction”. Moreover, the “plasma HDL-cholesterol at the lowest dose” value in data set [1] (4 days, 0.3 mg/kg i.p.) is listed as “significant increases”. Besides, the “circulating apoA1 levels” value in data set [1] (orally 3 mg/kg daily for four days, Western Blot of serum) is “significant increase in circulating apoA1 levels”. In addition, the cell growth entry in [2] and in [3] was “inhibit cell growth in a concentration-dependent manner” in each case.
For the compound `CC1=C(/C=C/C(C)=C\C=C\C(C)=C\C(=O)O)C(C)(C)CCC1` [9-cis-retinoic acid, reference compound], on RXRβ, the Emax stood at 140%.
For `C/C(=C\c1ccc(C(=O)O)cc1)c1ccc2c(c1)C(C)(C)CCC2(C)C` [TTNPB], the “concentrations providing essentially no effect on cell proliferation” value in [4] is “less than 10^-11 M”.
For `CC1=C(/C=C/C(C)=C/C=C/C(C)=C/C(=O)O)C(C)(C)CCC1` [all-trans-retinoic acid, All-trans-retinoic acid], the “cellular proliferation (thymidine incorporation)” value in the data set with HL60 is on record as “inhibits thymidine incorporation”.
Take `CC(C)(Oc1ccc(Cl)cc1)C(=O)O` [clofibric Acid, clofibric acid]: at RXRα/PPAR, the Emax amounted to 100%.
